≈ marks a conversion by molar mass, not a printed value. Values belong to the compound of their own block, whether it stands above or below them.
Experiment: Carrier properties: solubility
Format: physicochemical
Settings: for Solubility (appearance): 200 mg/mL

Solubility (appearance) (pH = 8.44): milky suspension
solubility (pH 8.44): 200 mg/mL (≈ 632 mM)
SMILES: Nc1ccc(F)cc1C(=O)Nc1ccc(CCCC(=O)O)cc1 [Compound 2, 4-(N-(2-amino-5-fluorobenzoyl)-4-aminophenyl)butyric]

Solubility (appearance) (pH = 8.7): slightly milky
solubility (pH 8.7): 200 mg/mL (≈ 675 mM)
SMILES: Nc1ccc(F)cc1C(=O)NCCCCCCCC(=O)O [Compound 1, N-(2-Amino-5-fluorobenzoyl)-8-aminocaprylic Acid]

Solubility (appearance) (pH = 8.28): soluble
solubility (soluble at pH = 8.28): 200 mg/mL (≈ 637 mM)
SMILES: O=C(O)CCCCCCCC(=O)Nc1cc(Cl)ccc1O [Compound 3, 8-(2-hydroxy-5-chloroanilinocarbonyl)octanoic acid]
